Results on 7 compounds are retold here after patent US20130196937A1, “AGE PRODUCTION INHIBITOR” (ORYZA OIL & FAT CHEMICAL CO., LTD., priority 2010, published 2013).

Like-named read-outs stand apart in the source and are kept apart here. Marks after values point to notes of the source that are not given here.

For one test, the system named is AGE production. Nature of the test: Test 1: AGE production inhibition (D-glucose + bovine serum albumin, fluorescence). The class given is biochemical. As to the method:
Put the sample solution ([…]) of the concentration of cherry-blossom extract (Example 1) and cherry-leaf extract (Example 2), as shown in the chart, below, into a phosphate buffer solution (pH: […]) containing D-glucose (10%) and into bovine serum albumin (fraction 5.1%) and leave it out at a temperature of 60 degrees centigrade for two days. Dilute the reaction solution with distilled water until the intensity of fluorescent light reaches about 500, thus determining its intensity (measurement wavelength: […]). Also, the extract is to be diluted with distilled water, and the substance, after being dissolved in DMSO (dimethyl sulphoxide), is to be diluted with a phosphate buffer solution until DMSO concentration is of 1%. Each value in Chart 1 indicates an average value with standard error of the three examples. Asterisks (*, **) mean a significant difference (i.e. *: p<0.05; **: p<0.01) between the processed samples and the unprocessed samples as determined by Dunnett's Multiple Comparison Test.

The test system of test [1] is normal diploid fibroblast (PDL22-32 cells). Briefly: Test 2-2: fibroblast apoptosis caused by CML-collagen (Caspase Assay), extracts and substances. It is filed as cell-based, human. As to the method:
50 mg of 1 mM HCL was added to 25 mL of bovine skin-derived collagen and dissolved for two hours incubation at the temperature of 37 degrees centigrade, and was shaken as needed. Then, PBS (pH7.4 25 mL) was added to sodium cyanoborohydride (1.42 g) and to glyoxylic acid (0.9 g) and mixed so as to react at the temperature of 37 degrees centigrade for 24 hours. The reaction solution was then put into a dialysis cell of 10,000 molecular mass for a dialysis-with-water test to be conducted for one day and for a dialysis-with-PBS to be conducted for six days. CML-collagen (21 mg) was obtained by freeze-drying the dialysate.
The fibroblast (7×10^4 cells) was suspended in the D-MEM medium containing FCS (0.5%), penicillin (100 units/mL) and streptomycin ([…]) to be seeded within 96-well plates ([…]). After 24 hours of culture, the dissolved CML-collagen solution (2 mg·mL) and the sample solution ([…]) were added to the medium and cultured for 24 hours. Collagen, instead of CML-collagen, was added to Normal group.
The rate of cell survival was measured by MIT Assay. The result is shown in Chart 2. At the same time, a microscopic test was done, of which the result of formazan formation of fibroblast (×100) is shown in FIG. 2. Apoptosis was identified by measuring active caspase-3/7 by the fluorescence method, of which the result is shown in Chart 3, below. Each value of Charts 2 and 3 is indicated by the average value with standard error of the six examples. Asterisks (*, **) mean a significant difference (i.e. *: p<0.05; **: p<0.01) between the unprocessed samples and Dunnett's multiple comparison test, and f represents p<0.05 by Fisher's PLSD Test.
Here, in Test 2-2, respecting the cherry-blossom extract (Example 1), and the cherry-leaf extract (Example 2) and the seven substances contained in the cherry-blossom extract (Example 1): 1-O-(E)-Caffeoyl-β-D-glucopyranoside, 1-O-(E)-Coumaroyl-β-D-Glucopyranosideand, 1-O-(E)-Cinnamoyl-β-D-glucopyranoside, Kaempferol 3-O-3-D-glucopyranoside, Quercetin 3-O-β-D-glucopyranoside, Kaempferol 3-O-(6″-malony)-β-D-glucopyranoside and Quercetin 3-O-(6″-malony)-β-D-glucopyranoside (Examples 3 to 9), the activity against fibroblast apoptosis, caused by CML-collagen, was identified in the same way as in Test 2-1.
Also, in Test 2-2, PDL22-32 cells were used as the normal diploid fibroblast. As a target for comparison, aminoguanidine hydrochloride which is a medicine for the glycation inhibitor was examined in the same way. Each value of Chart 4 indicates an average value with standard error of the five examples. Asterisks (*, **) mean a significant difference (i.e. *: p<0.05; **: p<0.01) between processed samples and unprocessed samples with CML-collagen, determined by Dunnett's Multiple Comparison Test.

A further test relates to NB1 RGB fibroblast. Briefly: Test 3: collagen grating formation of fibroblast glycosylated by glyoxal. The class given is cell-based, human. As to the method:
When fibroblast is cultured in the presence of collagen solution, collagen grating formation can be identified. In a similar test, when adding fibroblast that has been glycosylated by the intermediate product of glycation (glyoxal), it is known that the collagen grating formation is inhibited.
The infant-derived NB1 RGB (passage number 22) was suspended in the D-MEM complete media (1.86×10^4 cells/mL). 15 mL each of it was seeded within each cell-culture dish of 14 cm in diameter. After 24 hours, each sample and glyoxal were added until the molecular mass of each dish became […] and incubate the dishes for five days.
Bovine skin-derived collagen (25 mg) was dissolved in 0.1% acetic acid (8.3 mL). Then, a 10-times concentration of Hanks solution ([…]) was added. Then, 0.1% acetic acid (3.5 mL) was added. 1M NaOH was added to neutralize the solution, which was sterilized by filteration to obtain the collagen solution.
The mixed solution of collected fibroblast (5.4×10^4 cell) was suspended in FCS ([…]), and collagen ([…]) was seeded within a 24-well cell-culture plate and allowed to culture for 24 hours and 48 hours. Each culture was observed through a microscope and by the naked eye. For the purpose of comparison, aminoguanidin hydrochloride which is an anti-glycation agent was also examined in the same way.

For the compound `O=C(/C=C/c1ccccc1)O[C@@H]1OC(CO)[C@@H](O)C(O)C1O` (stereo partly drawn) [1-O-(E)-Cinnamoyl-β-D-glucopyranoside], in the test on AGE production, the “AGE inhibitory activity in words, related compound with less hydroxyl compared with Example 3” value is reported as “reduced”. The “IC50 of AGE production inhibition” value with AGE production is >300 µg/mL. The “Inhibition Ratio (%) of AGE production” value is listed as −8.4 ± 0.1% in the test on AGE production (1 μg/mL); −10.4 ± 0.1% with AGE production (3 μg/mL); −10.9 ± 0.4* % in the test with AGE production (10 μg/mL); −7.8 ± 0.1% in the test with AGE production (30 μg/mL); 5.7 ± 0.1% with AGE production (100 μg/mL); 23.3 ± 0.4** % in the test on AGE production (300 μg/mL). For the same compound, the figures for the “Inhibition Ratio (%) of fibroblast apoptosis (Caspase Assay)” value (“Inhibition Ratio (%) … (Caspase Assay)” for short) in test [1] (1 μg/mL), in test [1] (3 μg/mL) and in test [1] (10 μg/mL) were −11.8 ± 0.3%, 19.7 ± 0.9% and 48.6 ± 2.9%, respectively.
For `O=C(/C=C/c1ccc(O)cc1)O[C@@H]1OC(CO)[C@@H](O)C(O)C1O` (stereo partly drawn) [1-O-(E)-Coumaroyl-β-D-glucopyranoside], the “AGE inhibitory activity in words, related compound with less hydroxyl compared with Example 3” value with AGE production is recorded as “reduced”. The “IC50 of AGE production inhibition” value in the test with AGE production is >300 µg/mL. Also, the “Inhibition Ratio (%) of AGE production” value in the test on AGE production (1 μg/mL) is on record as −3.2 ± 0.1%; in the test on AGE production (3 μg/mL), −8.2 ± 0.1** %; with AGE production (10 μg/mL) it was −8.6 ± 0.1** %; in the test on AGE production (30 μg/mL), −8.9 ± 0.1** %; in the test with AGE production (100 μg/mL) it was −3.7 ± 0.1** %; with AGE production (300 μg/mL) it was 11.6 ± 0.1** %. Also, the “Inhibition Ratio (%) … (Caspase Assay)” value in test [1] (1 μg/mL) was 17.2 ± 0.5%; in test [1] (3 μg/mL), 7.1 ± 0.2%; in test [1] (10 μg/mL), 51.1 ± 1.9%.
`Cl.N=C(N)NN` [Aminoguanidine Hydrochloride, aminoguanidine hydrochloride, reference compound]: the “fibroblast shape, microscopic image after 24 hours of culture (FIG. 4)” value with NB1 RGB fibroblast was “spherically shaped”. Moreover, the “amount of collagen grating formation (naked eye, FIG. 3), compared to the control group” value with NB1 RGB fibroblast (100 mg/mL, with glyoxal) is “showed no increase in the amount of grating formation”. The “IC50 of AGE production inhibition” value with AGE production was 138 µg/mL. In addition, the “Inhibition Ratio (%) of AGE production” value was 1.4 ± 0.1% with AGE production (10 μg/mL), 18.1 ± 1.1% in the test with AGE production (30 μg/mL), 42.6 ± 1.7** % in the test with AGE production (100 μg/mL) and 67.7 ± 1.6** % in the test with AGE production (300 μg/mL). For the same compound, in test [1] (100 μg/mL), the “Inhibition Ratio (%) … (Caspase Assay)” value is listed as 104.8 ± 34* %.
As for `O=C(O)CC(=O)OCC1O[C@@H](Oc2c(-c3ccc(O)cc3)oc3cc(O)cc(O)c3c2=O)C(O)C(O)[C@@H]1O` (stereo partly drawn) [Kaempferol 3-O-(6″-malony)-β-D-glucopyranoside], the “IC50 of AGE production inhibition” value in the test with AGE production was 78 µg/mL. Besides, the “Inhibition Ratio (%) of AGE production” value with AGE production (1 μg/mL) is given as −5.0 ± 0.1%; in the test with AGE production (3 μg/mL), −8.5 ± 0.1%; in the test on AGE production (10 μg/mL), 0.2 ± 0.1%; in the test with AGE production (30 μg/mL), 20.5 ± 0.3** %; in the test with AGE production (100 μg/mL) it was 50.8 ± 0.4** %; with AGE production (300 μg/mL), 91.7 ± 1.7** %. Further, the “inhibitory activity against apoptosis caused by CML-collagen, result in words” value (shortened to “inhibitory activity … result in words”) in test [1] was “relatively weak activity”. Further, the “Inhibition Ratio (%) … (Caspase Assay)” value in test [1] (1 μg/mL) is −18.9 ± 0.6%; in test [1] (3 μg/mL), −17.3 ± 0.6%; in test [1] (10 μg/mL), 10.5 ± 0.5%.
For `O=c1c(O[C@@H]2O[C@H](CO)[C@@H](O)[C@H](O)[C@H]2O)c(-c2ccc(O)cc2)oc2cc(O)cc(O)c12` [Kaempferol 3-O-β-D-glucopyranoside], in the test on AGE production, the “IC50 of AGE production inhibition” value stood at 102 µg/mL. Moreover, the “Inhibition Ratio (%) of AGE production” value in the test with AGE production (1 μg/mL) is listed as −8.4 ± 0.1** %; with AGE production (3 μg/mL), −9.1 ± 0.2** %; in the test with AGE production (10 μg/mL) it was −2.0 ± 0.1%; with AGE production (30 μg/mL), 19.4 ± 0.1** %; in the test on AGE production (100 μg/mL) it was 45.0 ± 0.5** %; in the test on AGE production (300 μg/mL), 80.3 ± 0.7** %. Also, the “inhibitory activity … result in words” value in test [1] was “especially strong inhibitory activity”; in test [1] (listed as Example 6), “strong inhibitory activity”. Besides, the figures for the “Inhibition Ratio (%) … (Caspase Assay)” value in test [1] (1 μg/mL), in test [1] (3 μg/mL) and in test [1] (10 μg/mL) were −0.7 ± 0.1%, 27.9 ± 1.1% and 100.7 ± 4.2%, respectively.
For `O=C(O)CC(=O)OCC1O[C@@H](Oc2c(-c3ccc(O)c(O)c3)oc3cc(O)cc(O)c3c2=O)C(O)C(O)[C@@H]1O` (stereo partly drawn) [Quercetin 3-O-(6″-malony)-β-D-glucopyranoside], the “IC50 of AGE production inhibition” value in the test on AGE production came out at 36 µg/mL. For the same compound, the “Inhibition Ratio (%) of AGE production” value was −10.4 ± 0.9% in the test with AGE production (1 μg/mL); 1.9 ± 0.1% in the test on AGE production (3 μg/mL); 20.4 ± 0.3** % in the test with AGE production (10 μg/mL); 43.7 ± 0.7** % in the test on AGE production (30 μg/mL); 74.6 ± 0.7** % in the test on AGE production (100 μg/mL); 103.9 ± 3.6** % with AGE production (300 μg/mL). In addition, the “inhibitory activity … result in words” value in test [1] is recorded as “strong inhibitory activity”. Besides, the figures for the “Inhibition Ratio (%) … (Caspase Assay)” value in test [1] (1 μg/mL), in test [1] (3 μg/mL) and in test [1] (10 μg/mL) were 21.8 ± 0.7%, 36.6 ± 1.4% and 98.4 ± 4.4* %, respectively.
For the compound `O=c1c(O[C@@H]2O[C@H](CO)[C@@H](O)[C@H](O)[C@H]2O)c(-c2ccc(O)c(O)c2)oc2cc(O)cc(O)c12` [Quercetin 3-O-β-D-glucopyranoside], the “IC50 of AGE production inhibition” value with AGE production was determined as 30 µg/mL. The “Inhibition Ratio (%) of AGE production” value in the test on AGE production (1 μg/mL) is given as 8.5 ± 0.1** %; in the test on AGE production (3 μg/mL), 6.5 ± 0.1* %; with AGE production (10 μg/mL), 27.6 ± 0.5** %; with AGE production (30 μg/mL), 49.8 ± 0.7** %; with AGE production (100 μg/mL), 74.2 ± 1.1** %; in the test with AGE production (300 μg/mL), 100.8 ± 0.6** %. In addition, in test [1], the “inhibitory activity … result in words” value is given as “strongest inhibitory activity”. For the same compound, the “Inhibition Ratio (%) … (Caspase Assay)” value in test [1] (1 μg/mL) is listed as 44.2 ± 1.5* %; in test [1] (3 μg/mL), 39.0 ± 1.1* %; in test [1] (10 μg/mL), 121.5 ± 5.4** %.
